Assay results published in US5310741A, “TAN-1251 compounds and their production from penicillium thomii” (Takeda Chemical Industries, Ltd., priority 1990, dated 1994).

Key:
mice = assay: Acute toxicity, oral administration in mice; type: in vivo; conditions: 100 mg/kg
Procedure: For assessment of the acute toxicity of TAN-1251, an oral administration experiment using TAN-1251A and B was performed in mice.

[1] = type: physicochemical
From the text: Below presented as the physicochemical properties of the respective species of TAN-1251 prepared in the Examples given hereinafter.

[2] = tested on: acetylcholine-induced contraction of the isolated Guinea pig ileum; assay: Antagonizing activity against acetylcholine-induced contraction of the isolated Guinea pig ileum; set-up: species or system Guinea pig (Std Hartley); conditions: Cavia porcellus, 5 min; acetylcholine 1×10^-7 M, 37° C., 5 minutes equilibration; read-out: Guinea pig ileal contractility ED50 (50% inhibition of the maximal contraction)
Procedure: (b) Antagonizing activity against acetylcholine-induced contraction of the isolated Guinea pig ileum
A Guinea pig (Std Hartley, male, 250 g, Japan SLC) deprived of food for 24 hours was subjected to brain concussion and after exsanguination from the carotid artery, the ileum was isolated. An ileal strip, about 3 cm long, was prepared and suspended in a Magnus tube containing 20 ml of Tyrode solution. At a constant bath temperature of 37° C., a mixed gas (95% O2 -5% CO2) was bubbled through the bath. The sample was added and after 5 minutes of equillibration, acetylcholine (Daiichi Seiyaku, Japan) was added at a final concentration of 1×10^-7 M to induce contraction of the ileal strip. The contraction was recorded through an isotonic transducer (ME-4013, Suruga Electronics, Japan) on a recorder (Rectiholy 8K, Japan Electronics Sanei, Japan). The activity of the same was expressed in ED50 representing 50% inhibition of the maximal contraction.

Muscarinic receptor = type: binding, Wistar rat; conditions: 3H-QNB radioligand, room temperature, 60 minutes; read-out: Radio receptor assay IC50

Row | SMILES | toxic signs (acute toxicity) (mice) | Properties (basicity and liposolubility) [1] | IC50 [2] [nM] | IC50 (Muscarinic receptor) [nM]
1 | CC(C)=CCOc1ccc(C=C2CN(C)C3CN2C2(CCC(=O)CC2)C3)cc1 (stereo not shown) [Compound 1] | no toxic signs were observed | Basic and liposoluble | 8 | 5.7
2 | CC(C)=CCOc1ccc(C=C2CN(C)C3CN2C2(CCC(=O)C(O)C2)C3)cc1 (stereo not shown) [Compound 2] | no toxic signs were observed | Basic and liposoluble | 13 | 0.13
3 | CC(C)=CCOc1ccc(CC2CN(C)C3CN2C2(CCC(=O)CC2)C3)cc1 (stereo not shown) [Compound 4] |  | Basic and liposoluble |  | 
4 | CC(C)=CCOc1ccc(CC2=CN(C)C3CN2C2(CCC(=O)CC2)C3)cc1 (stereo not shown) [Compound 3] |  | Basic and liposoluble |  | 
